US20260297060A1, “COMPOUNDS FOR THE DEGRADATION OF MUTANT BRAF” (C4 THERAPEUTICS, INC., priority 2023, published 2026)
Where two headings read alike, the source gives them in different places.

Biological target: T1, BRAF V600E (Homo sapiens, UniProt P15056+Q96SW2, V600E)
T1 construct: knock-in of the HiBiT tag to the endogenous BRAF V600E locus; host or cells: A375.10 (A375 clonal line, CRISPR HiBiT knock-in at the endogenous BRAF V600E locus)
Experiment: BRAF V600E HiBiT Degradation Assay
Assay type: cell-based
In short: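 Endogenous HiBiT knock-in on BRAF V600E in A375 cells (clone A375.10); 11-point half-log series, top 10 μM, 2, 6 or 24 h at 37° C. Lytic HiBiT luminescence, background-subtracted, normalized to DMSO; 4-parameter fit gives DC50, Emax (residual protein) and IP (inflection point).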

[1] = A375.10 cells, BRAF V600E, 2 hours, inflection point, read-out: HiBiT-Degradation A375.10 BRAF 2 hours IP
[2] = A375.10 cells, BRAF V600E, 2 hours, read-out: HiBiT-Degradation A375.10 BRAF 2 hours DC50
[3] = A375.10 cells, BRAF V600E, 6 hours, inflection point, read-out: HiBiT-Degradation A375.10 BRAF 6 hours IP
[4] = A375.10 cells, BRAF V600E, 6 hours, read-out: HiBiT-Degradation A375.10 BRAF 6 hours DC50
[5] = A375.10 cells, BRAF V600E, 6 hours, residual protein remaining, read-out: HiBiT-Degradation A375.10 BRAF 6 hours Emax
[6] = A375.10 cells, HiBiT, BRAF V600E, 24 hours, read-out: HiBiT-Degradation A375.10 BRAF 24 hours DC50
[7] = A375.10 cells, HiBiT, BRAF V600E, 24 hours, read-out: HiBiT-Degradation A375.10 BRAF 24 hours Emax
[8] = A375.10 cells, HiBiT, BRAF V600E, 24 hours, read-out: HiBiT-Degradation A375.10 BRAF 24 hours IP
[9] = read-out: HiBiT-Degradation A375.10 BRAF 2 hours Emax, A375.10 cells, BRAF V600E, 2 hours, residual protein remaining
[10] = A375.10 cells, BRAF V600E, 2 hours, residual protein remaining, read-out: HiBiT-Degradation A375.10 BRAF 2 hours Emax

T1 sequence (P15056 whole entry V600E): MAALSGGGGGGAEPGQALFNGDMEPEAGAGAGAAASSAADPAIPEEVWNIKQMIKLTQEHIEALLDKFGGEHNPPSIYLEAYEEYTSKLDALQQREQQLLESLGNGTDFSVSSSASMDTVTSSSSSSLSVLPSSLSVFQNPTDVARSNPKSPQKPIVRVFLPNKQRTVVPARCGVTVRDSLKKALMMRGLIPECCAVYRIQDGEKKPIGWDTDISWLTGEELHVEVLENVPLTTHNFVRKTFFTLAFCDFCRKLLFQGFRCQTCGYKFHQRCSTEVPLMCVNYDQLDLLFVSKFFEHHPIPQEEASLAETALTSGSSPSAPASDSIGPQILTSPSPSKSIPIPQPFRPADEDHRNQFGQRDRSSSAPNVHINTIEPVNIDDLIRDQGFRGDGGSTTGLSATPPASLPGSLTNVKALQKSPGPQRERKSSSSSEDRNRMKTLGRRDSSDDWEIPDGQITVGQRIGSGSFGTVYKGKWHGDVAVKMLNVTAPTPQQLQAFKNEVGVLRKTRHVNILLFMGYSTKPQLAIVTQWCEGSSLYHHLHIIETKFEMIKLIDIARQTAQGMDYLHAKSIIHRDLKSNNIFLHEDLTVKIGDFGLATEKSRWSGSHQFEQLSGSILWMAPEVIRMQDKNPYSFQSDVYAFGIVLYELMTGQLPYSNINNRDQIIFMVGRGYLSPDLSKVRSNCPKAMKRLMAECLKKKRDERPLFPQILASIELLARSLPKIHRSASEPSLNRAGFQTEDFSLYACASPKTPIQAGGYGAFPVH
T1 sequence (Q96SW2 whole entry): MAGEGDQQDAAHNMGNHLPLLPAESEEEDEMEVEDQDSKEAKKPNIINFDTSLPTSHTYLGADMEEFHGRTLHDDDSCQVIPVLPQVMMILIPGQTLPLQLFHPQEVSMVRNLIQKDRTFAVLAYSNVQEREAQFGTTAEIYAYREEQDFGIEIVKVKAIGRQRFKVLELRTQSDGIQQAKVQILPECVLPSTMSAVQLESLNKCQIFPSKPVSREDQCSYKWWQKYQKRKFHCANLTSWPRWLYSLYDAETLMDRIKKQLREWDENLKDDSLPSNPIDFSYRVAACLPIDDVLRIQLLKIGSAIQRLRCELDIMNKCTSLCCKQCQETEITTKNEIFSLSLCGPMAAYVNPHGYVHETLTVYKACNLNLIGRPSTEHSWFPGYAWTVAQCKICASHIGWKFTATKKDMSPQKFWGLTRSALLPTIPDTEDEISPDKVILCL
T1 sequence (Q16531 whole entry partner): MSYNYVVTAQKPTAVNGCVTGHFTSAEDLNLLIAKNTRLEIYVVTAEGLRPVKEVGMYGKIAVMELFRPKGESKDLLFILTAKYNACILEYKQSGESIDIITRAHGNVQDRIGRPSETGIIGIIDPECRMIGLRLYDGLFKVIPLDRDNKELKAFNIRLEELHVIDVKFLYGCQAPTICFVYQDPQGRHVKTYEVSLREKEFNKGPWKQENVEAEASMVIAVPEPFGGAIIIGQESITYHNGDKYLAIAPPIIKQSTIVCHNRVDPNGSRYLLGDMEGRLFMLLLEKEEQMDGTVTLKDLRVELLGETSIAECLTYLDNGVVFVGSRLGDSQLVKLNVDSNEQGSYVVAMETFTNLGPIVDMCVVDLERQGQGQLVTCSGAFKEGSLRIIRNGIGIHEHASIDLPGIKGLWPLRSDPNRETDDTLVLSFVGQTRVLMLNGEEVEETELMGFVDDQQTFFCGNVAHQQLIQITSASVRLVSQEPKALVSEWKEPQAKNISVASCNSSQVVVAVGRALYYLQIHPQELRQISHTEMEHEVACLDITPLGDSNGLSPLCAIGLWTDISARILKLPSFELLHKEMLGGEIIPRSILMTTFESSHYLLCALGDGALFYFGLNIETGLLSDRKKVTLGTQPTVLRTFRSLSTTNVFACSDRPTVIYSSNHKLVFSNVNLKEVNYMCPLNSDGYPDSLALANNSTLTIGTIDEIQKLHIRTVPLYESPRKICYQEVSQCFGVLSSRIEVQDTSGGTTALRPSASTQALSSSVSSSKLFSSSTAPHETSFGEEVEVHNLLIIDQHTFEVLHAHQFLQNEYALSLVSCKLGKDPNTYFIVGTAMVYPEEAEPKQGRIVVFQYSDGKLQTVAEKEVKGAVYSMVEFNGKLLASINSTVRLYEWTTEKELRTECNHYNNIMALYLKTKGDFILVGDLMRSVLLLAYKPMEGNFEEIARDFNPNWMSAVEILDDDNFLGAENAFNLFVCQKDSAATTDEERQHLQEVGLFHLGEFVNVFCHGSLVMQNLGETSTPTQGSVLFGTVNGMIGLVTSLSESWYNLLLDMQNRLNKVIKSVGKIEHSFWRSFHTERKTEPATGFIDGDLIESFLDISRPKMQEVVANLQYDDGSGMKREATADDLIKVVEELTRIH

DC50 [1]	DC50 [2]	DC50 [3]	DC50 [4]	Emax [5]	DC50 [6]	Emax [7]	DC50 [8]	Emax [9]	Emax [10]	HiBiT-Degradation A375.10 BRAF 2 hours Emax	HiBiT-Degradation A375.10 BRAF 24 hours Emax (A375.10 cells, HiBiT, BRAF V600E, 24 hours)	SMILES
< 1 µM	< 1 µM	< 1 µM	< 1 µM	< 50%	< 1 µM	< 50%	< 1 µM	< 50%				CN(CCO)S(=O)(=O)Nc1ccc(F)c(Oc2ccc3ncn(C4CC5(CCN(C6CCC(c7cc8c(cc7F)c(N7CCC(=O)NC7=O)nn8C)CC6F)CC5)C4)c(=O)c3c2)c1C#N (single isomer, unassigned) [Compound 145, 6-[2-cyano-6-fluoro-3-[[2-hydroxyethyl(methyl)sulfamoyl]amino]phenoxy]-3-[7-[4-[3-(2,4-dioxohexahydropyrimidin-1-yl)-5-fluoro-1-methyl-indazol-6-yl]-2-fluoro-cyclohexyl]-7-azaspiro[3.5]nonan-2-yl]-4-oxo-quinazoline]
< 1 µM	< 1 µM							< 50%				CCN(C)S(=O)(=O)Nc1ccc(F)c(Oc2ccc3ncc([C@H]4COC5(CCN(C6CCC(c7cc8c(cc7F)c(N7CCC(=O)NC7=O)nn8C)CC6F)CC5)C4)nc3c2)c1C#N (single isomer, unassigned) [Compound 160]
< 1 µM	< 1 µM	< 1 µM	< 1 µM	< 50%	< 1 µM	< 50%	< 1 µM		< 50%			CCN(C)S(=O)(=O)Nc1ccc(F)c(Oc2ccc3ncn(C4CC5(CCN(C6CCC(c7cc8c(cc7F)c(N7CCC(=O)NC7=O)nn8C)CC6)CC5)C4)c(=O)c3c2)c1F (single isomer, unassigned) [Compound 178, 3-[7-[4-[3-(2,4-dioxohexahydropyrimidin-1-yl)-5-fluoro-1-methyl-indazol-6-yl]cyclohexyl]-7-azaspiro[3.5]nonan-2-yl]-6-[3-[[ethyl(methyl)sulfamoyl]amino]-2,6-difluoro-phenoxy]-4-oxo-quinazoline]
< 1 µM	< 1 µM	< 1 µM	< 1 µM	< 50%	< 1 µM	< 50%	< 1 µM	< 50%				CCN(C)S(=O)(=O)Nc1ccc(F)c(Oc2ccc3ncc(C4CC5(CCN(C6CCC(c7cc8c(cc7F)c(N7CCC(=O)NC7=O)nn8C)CC6)CC5)C4)nc3c2)c1C#N (single isomer, unassigned) [Compound 180, 7-[2-cyano-3-[[ethyl(methyl)sulfamoyl]amino]-6-fluoro-phenoxy]-2-[7-[4-[3-(2,4-dioxohexahydropyrimidin-1-yl)-5-fluoro-1-methyl-indazol-6-yl]cyclohexyl]-7-azaspiro[3.5]nonan-2-yl]quinoxaline]
< 1 µM	1 to 10 µM	< 1 µM	< 1 µM	< 50%	< 1 µM	< 50%	< 1 µM		50 to 90%			CCN(C)S(=O)(=O)Nc1ccc(F)c(C(=O)c2ccc3ncn(C4CC5(CCN(C6CCC(c7cc8c(cc7F)c(N7CCC(=O)NC7=O)nn8C)CC6)CC5)C4)c(=O)c3c2)c1F (single isomer, unassigned) [Compound 182, 3-[7-[4-[3-(2,4-dioxohexahydropyrimidin-1-yl)-5-fluoro-1-methyl-indazol-6-yl]cyclohexyl]-7-azaspiro[3.5]nonan-2-yl]-6-[3-[[ethyl(methyl)sulfamoyl]amino]-2,6-difluoro-benzoyl]-4-oxo-quinazoline]
< 1 µM	< 1 µM	< 1 µM	< 1 µM	< 50%	< 1 µM	< 50%	< 1 µM		< 50%			CCN(C)S(=O)(=O)Nc1ccc(F)c(Oc2ccc3ncn(C4CC5(CCN(C6CCC(c7cc8c(cc7F)c(N7CCC(=O)NC7=O)nn8C)CC6F)CC5)C4)c(=O)c3c2)c1F (single isomer, unassigned) [Compound 184]
< 1 µM	< 1 µM				< 1 µM		< 1 µM			*** (<=50%)	*** (<=50%)	CCN(C)S(=O)(=O)Nc1ccc(F)c(Oc2ccc3ncn(C4CC5(C4)CN(C4CCC(c6cc7c(cc6F)c(N6CCC(=O)NC6=O)nn7C)CC4)C5)c(=O)c3c2)c1C#N (single isomer, unassigned) [Compound 204, 6-[2-cyano-3-[[ethyl(methyl)sulfamoyl]amino]-6-fluoro-phenoxy]-3-[2-[4-[3-(2,4-dioxohexahydropyrimidin-1-yl)-5-fluoro-1-methyl-indazol-6-yl]cyclohexyl]-2-azaspiro[3.3]heptan-6-yl]-4-oxo-quinazoline]
< 1 µM	< 1 µM				< 1 µM	< 50%	< 1 µM	< 50%				CCN(C)S(=O)(=O)Nc1ccc(F)c(Oc2ccc3ncc(OC4CC5(CCN(C6CCC(c7cc8c(cc7F)c(N7CCC(=O)NC7=O)nn8C)CC6)CC5)C4)nc3c2)c1C#N (single isomer, unassigned) [Compound 218, 7-[2-cyano-3-[[ethyl(methyl)sulfamoyl]amino]-6-fluoro-phenoxy]-2-[[7-[4-[3-(2,4-dioxohexahydropyrimidin-1-yl)-5-fluoro-1-methyl-indazol-6-yl]cyclohexyl]-7-azaspiro[3.5]nonan-2-yl]oxy]quinoxaline]
< 1 µM	< 1 µM	< 1 µM	< 1 µM	< 50%	< 1 µM	< 50%	< 1 µM		< 50%			CCN(C)S(=O)(=O)Nc1ccc(F)c(Oc2ccc3ncn([C@H]4COC5(CCC(N6CC7(CN(c8cc9c(cc8F)c(N8CCC(=O)NC8=O)nn9C)C7)C6)CC5)C4)c(=O)c3c2)c1C#N (stereo partly drawn) [Compound 27, 6-[2-cyano-3-[[ethyl(methyl)sulfamoyl]amino]-6-fluoro-phenoxy]-3-[(3R)-8-[6-[3-(2,4-dioxohexahydropyrimidin-1-yl)-5-fluoro-1-methyl-indazol-6-yl]-2,6-diazaspiro[3.3]heptan-2-yl]-1-oxaspiro[4.5]decan-3-yl]-4-oxo-quinazoline]
< 1 µM	< 1 µM	< 1 µM	< 1 µM	< 50%	< 1 µM	< 50%	< 1 µM	< 50%				CCN(C)S(=O)(=O)Nc1ccc(F)c(Oc2ccc3ncn([C@H]4COC5(CCC(N6CC7(CN(c8ccc(NC9CCC(=O)NC9=O)cc8F)C7)C6)CC5)C4)c(=O)c3c2)c1C#N (stereo partly drawn) [Compound 30, 6-[2-cyano-3-[[ethyl(methyl)sulfamoyl]amino]-6-fluoro-phenoxy]-3-[(3R)-8-[6-[4-[(2,6-dioxo-3-piperidyl)amino]-2-fluoro-phenyl]-2,6-diazaspiro[3.3]heptan-2-yl]-1-oxaspiro[4.5]decan-3-yl]-4-oxo-quinazoline]
< 1 µM	< 1 µM	< 1 µM	< 1 µM	< 50%	< 1 µM	< 50%	< 1 µM		< 50%			CCN(C)S(=O)(=O)Nc1ccc(F)c(Oc2ccc3ncn([C@H]4COC5(CCN(C6CC7(C6)CN(c6ccc(NC8CCC(=O)NC8=O)cc6F)C7)CC5)C4)c(=O)c3c2)c1C#N (stereo partly drawn) [Compound 35, (3R)-3-[6-[2-cyano-3-[[ethyl(methyl)sulfamoyl]amino]-6-fluoro-phenoxy]-4-oxo-quinazolin-3-yl]-8-[2-[4-[(2,6-dioxo-3-piperidyl)amino]-2-fluoro-phenyl]-2-azaspiro[3.3]heptan-6-yl]-1-oxa-8-azaspiro[4.5]decane]

SMILES	DC50 [1]	DC50 [2]	DC50 [3]	DC50 [4]	Emax [5]	DC50 [6]	Emax [7]	DC50 [8]	Emax [9]	Emax [10]	HiBiT-Degradation A375.10 BRAF 2 hours Emax	HiBiT-Degradation A375.10 BRAF 24 hours Emax (A375.10 cells, HiBiT, BRAF V600E, 24 hours)
CCN(C)S(=O)(=O)Nc1ccc(F)c(Oc2ccc3ncn([C@H]4COC5(CCN(C6CC7(C6)CN(c6cc8c(cc6F)c(N6CCC(=O)NC6=O)nn8C)C7)CC5)C4)c(=O)c3c2)c1C#N [Compound 26, (3R)-3-[6-[2-cyano-3-[[ethyl(methyl)sulfamoyl]amino]-6-fluoro-phenoxy]-4-oxo-quinazolin-3-yl]-8-[2-[3-(2,4-dioxohexahydropyrimidin-1-yl)-5-fluoro-1-methyl-indazol-6-yl]-2-azaspiro[3.3]heptan-6-yl]-1-oxa-8-azaspiro[4.5]decane]	< 1 µM	< 1 µM	< 1 µM	< 1 µM	< 50%	< 1 µM	< 50%	< 1 µM	< 50%			
